Each molecule was assayed on MCH receptors (assay: MCH receptor activity class (method not given)). Settings: MCH receptor activity class 1-3 (percent of control at 10^-7 M or IC50).

Row | SMILES | class
1 | CN(C)c1ccnc(N[C@H]2CC[C@@H](CNC(=O)Nc3ccccc3C(F)(F)F)CC2)n1 [compound 2412] | 3 (Class 3 The value of percent of control at 10^−7 M was more than 60% or the value of IC50 was more than 200 nM.)
2 | CCc1cccc(CC)c1NC(=O)NC[C@H]1CC[C@@H](Nc2nc3c(c(N(C)C)n2)CCCC3)CC1 [compound 2464] | 1 (Class 1: The value of percent of control at 10^−7 M was less than 40% or the value of IC50 was less than 50 nM.)
3 | CN(C)c1nc(N[C@H]2CC[C@@H](CNC(=O)Nc3ccccc3I)CC2)nc2c1CCCC2 [compound 2470] | 3 (Class 3 The value of percent of control at 10^−7 M was more than 60% or the value of IC50 was more than 200 nM.)

Same assay, conditions: MCH receptor; class by percent of control at 10^-7 M or IC50

Row | SMILES | class
4 | CN(C)c1nc(N[C@H]2CC[C@@H](NC(=S)NC(c3ccccc3)c3ccccc3)CC2)nc2c1CCCC2 [compound 2025] | 3 (Class 3 The value of percent of control at 10^−7 M was more than 60% or the value of IC50 was more than 200 nM.)
5 | CN(C)c1nc(N[C@H]2CC[C@@H](NC(=S)NC3CC4CCC3C4)CC2)nc2c1CCCC2 (some centres unmarked) [compound 1995] | 3 (Class 3 The value of percent of control at 10^−7 M was more than 60% or the value of IC50 was more than 200 nM.)
6 | CCOc1ccccc1C(=O)NC[C@H]1CC[C@@H](Nc2cc(N(C)C)c3ccccc3n2)CC1 [compound 199] | 3 (Class 3 The value of percent of control at 10^−7 M was more than 60% or the value of IC50 was more than 200 nM.)
7 | CN(C)c1nc(N[C@H]2CC[C@@H](NC(=S)Nc3ccc(Sc4ccc([N+](=O)[O-])cc4)cc3)CC2)nc2c1CCCC2 [compound 2050] | 3 (Class 3 The value of percent of control at 10^−7 M was more than 60% or the value of IC50 was more than 200 nM.)

Same assay, conditions: activity class 1-3: percent of control at 10^-7 M or IC50

Row | SMILES | class
8 | Cc1c(C)c(C)c(CNC2CCC(Nc3nccc(N(C)C)n3)CC2)c(C)c1C (centres unmarked) [compound 1519] | 3 (Class 3 The value of percent of control at 10^−7 M was more than 60% or the value of IC50 was more than 200 nM.)
9 | COc1ccccc1OC(=O)N[C@H]1CC[C@@H](Nc2nccc(N(C)C)n2)CC1 [compound 1624] | 3 (Class 3 The value of percent of control at 10^−7 M was more than 60% or the value of IC50 was more than 200 nM.)

Same assay, conditions: activity class per percent of control at 10^-7 M or IC50

Row | SMILES | class
10 | Cc1cc(CNC[C@H]2CC[C@@H](Nc3cc(N(C)C)c4ccccc4n3)CC2)cc(C)c1O [compound 1140] | 3 (Class 3 The value of percent of control at 10^−7 M was more than 60% or the value of IC50 was more than 200 nM.)

Same assay, conditions: class 1-3 by percent of control at 10^-7 M or IC50

Row | SMILES | class
11 | COc1ccc(Br)c(C(=O)N[C@H]2CC[C@@H](Nc3nc4c(c(N(C)C)n3)CCCC4)CC2)c1 [compound 557] | 3 (Class 3 The value of percent of control at 10^−7 M was more than 60% or the value of IC50 was more than 200 nM.)
12 | CN(C)c1nc(NC2CCC(NC(=O)OCc3ccc([N+](=O)[O-])cc3)CC2)nc2c1CCCC2 (centres unmarked) [compound 492] | 3 (Class 3 The value of percent of control at 10^−7 M was more than 60% or the value of IC50 was more than 200 nM.)

Same assay, conditions: class by percent of control at 10^-7 M or IC50

Row | SMILES | class
13 | CCCCCCCOc1ccc(NC(=O)N[C@H]2CC[C@@H](Nc3nc4c(c(N(C)C)n3)CCCC4)CC2)cc1 [compound 1891] | 3 (Class 3 The value of percent of control at 10^−7 M was more than 60% or the value of IC50 was more than 200 nM.)
14 | CCSc1ncccc1C(=O)N[C@H]1CC[C@@H](Nc2nccc(N(C)C)n2)CC1 [compound 254] | 3 (Class 3 The value of percent of control at 10^−7 M was more than 60% or the value of IC50 was more than 200 nM.)
15 | CN(C)c1ccnc(N[C@H]2CC[C@@H](CNC(=O)c3ccc(F)c(Cl)c3F)CC2)n1 [compound 407] | 3 (Class 3 The value of percent of control at 10^−7 M was more than 60% or the value of IC50 was more than 200 nM.)
16 | CN(C)c1cc(N[C@H]2CC[C@@H](NC(=O)c3ccc(-c4cccc([N+](=O)[O-])c4)o3)CC2)nc2ccccc12 [compound 763, N-(cis-4-{[4-(dimethylamino)quinolin-2-yl]amino}cyclohexyl)-5-(3-nitrophenyl)-2-furamide] | 1 (Class 1: The value of percent of control at 10^−7 M was less than 40% or the value of IC50 was less than 50 nM.)
17 | COC(=O)c1ccccc1NC(=O)N[C@H]1CC[C@@H](Nc2nc3c(c(N(C)C)n2)CCCC3)CC1 [compound 1844] | 3 (Class 3 The value of percent of control at 10^−7 M was more than 60% or the value of IC50 was more than 200 nM.)
18 | CN(C)c1nc(N[C@H]2CC[C@@H](NC(=O)Nc3ccc(Cl)cc3)CC2)nc2c1CCCC2 [compound 1815] | 3 (Class 3 The value of percent of control at 10^−7 M was more than 60% or the value of IC50 was more than 200 nM.)
19 | Cc1c(C(=O)N[C@H]2CC[C@@H](Nc3cc(N(C)C)c4ccccc4n3)CC2)cc(-c2ccccc2)n1CCCN1CCOCC1 [compound 724] | 3 (Class 3 The value of percent of control at 10^−7 M was more than 60% or the value of IC50 was more than 200 nM.)
20 | Cc1cc(C(=O)N[C@H]2CC[C@@H](Nc3cc(N(C)C)c4ccccc4n3)CC2)cc(C)c1[N+](=O)[O-] [compound 774, N-(cis-4-{[4-(dimethylamino)quinolin-2-yl]amino}cyclohexyl)-3,5-dimethyl-4-nitrobenzamide] | 2 (Class 2: The value of percent of control at 10^−7 M was from 40% to 60% or the value of IC′50 was from 50 nM to 200 nM.)
21 | CN(C)c1nc(N[C@H]2CC[C@@H](CNC(=O)c3cccc(C(F)(F)F)c3F)CC2)nc2c1CCCC2 [compound 626] | 3 (Class 3 The value of percent of control at 10^−7 M was more than 60% or the value of IC50 was more than 200 nM.)
22 | CN(C)c1cc(N[C@H]2CC[C@@H](CNC(=O)c3cn(Cc4ccccc4)c4ccccc34)CC2)nc2ccccc12 [compound 805] | 3 (Class 3 The value of percent of control at 10^−7 M was more than 60% or the value of IC50 was more than 200 nM.)
23 | CN(C)c1cc(N[C@H]2CC[C@@H](CNCc3cccc(C#N)c3)CC2)nc2ccccc12 [compound 1163] | 3 (Class 3 The value of percent of control at 10^−7 M was more than 60% or the value of IC50 was more than 200 nM.)
24 | CCC(Oc1ccccc1)C(=O)NC[C@H]1CC[C@@H](Nc2nccc(N(C)C)n2)CC1 (relative stereo) [compound 393, N-[(cis-4-{[4-(dimethylamino)pyrimidin-2-yl]amino}cyclohexyl)methyl]-2-phenoxybutanamide] | 2 (Class 2: The value of percent of control at 10^−7 M was from 40% to 60% or the value of IC′50 was from 50 nM to 200 nM.)
25 | COc1cc(OC)c(NC(=S)N[C@H]2CC[C@@H](Nc3nc4c(c(N(C)C)n3)CCCC4)CC2)cc1Cl [compound 1777] | 1 (Class 1: The value of percent of control at 10^−7 M was less than 40% or the value of IC50 was less than 50 nM.)
26 | CCOC(=O)c1ccc(NC(=O)N[C@H]2CC[C@@H](Nc3nc4c(c(N(C)C)n3)CCCC4)CC2)cc1 [compound 1823] | 3 (Class 3 The value of percent of control at 10^−7 M was more than 60% or the value of IC50 was more than 200 nM.)
27 | CN(C)c1ccnc(N[C@H]2CC[C@@H](CNC(=O)/C=C/c3cccc([N+](=O)[O-])c3)CC2)n1 [compound 934] | 1 (Class 1: The value of percent of control at 10^−7 M was less than 40% or the value of IC50 was less than 50 nM.)
28 | CN(C)c1cc(N[C@H]2CC[C@@H](NC(=O)Nc3ccc(F)cc3F)CC2)nc2ccccc12 [compound 2091] | 3 (Class 3 The value of percent of control at 10^−7 M was more than 60% or the value of IC50 was more than 200 nM.)
29 | CCOc1ccc(OCC)c(CNC[C@H]2CC[C@@H](Nc3nccc(N(C)C)n3)CC2)c1 [compound 1290] | 1 (Class 1: The value of percent of control at 10^−7 M was less than 40% or the value of IC50 was less than 50 nM.)
30 | CN(C)c1nc(N[C@H]2CC[C@@H](NC(=S)Nc3ccc(C#N)cc3)CC2)nc2c1CCCC2 [compound 1738] | 3 (Class 3 The value of percent of control at 10^−7 M was more than 60% or the value of IC50 was more than 200 nM.)
31 | CN(C)c1cc(N[C@H]2CC[C@@H](NC(=O)NC3C[C@H]3c3ccccc3)CC2)nc2ccccc12 (some centres unmarked) [compound 2131] | 3 (Class 3 The value of percent of control at 10^−7 M was more than 60% or the value of IC50 was more than 200 nM.)
32 | CN(C)c1ccnc(N[C@H]2CC[C@@H](CNCc3ccsc3)CC2)n1 [compound 1304] | 3 (Class 3 The value of percent of control at 10^−7 M was more than 60% or the value of IC50 was more than 200 nM.)
33 | CN(C)c1ccnc(N[C@H]2CC[C@@H](CNC(=O)c3cc(F)cc(F)c3)CC2)n1 [compound 379] | 3 (Class 3 The value of percent of control at 10^−7 M was more than 60% or the value of IC50 was more than 200 nM.)
34 | Cc1ccc(C(=O)NC[C@H]2CC[C@@H](Nc3nc4c(c(N(C)C)n3)CCCC4)CC2)cc1[N+](=O)[O-] [compound 605] | 3 (Class 3 The value of percent of control at 10^−7 M was more than 60% or the value of IC50 was more than 200 nM.)

Same assay, conditions: class by percent of control at 10^−7 M or IC50

Row | SMILES | class
35 | Cc1cc(N(C)C)nc(NC[C@H]2CC[C@@H](NC(=O)c3cccc(C(F)(F)F)c3)CC2)n1 [compound 2739] | 3 (Class 3 The value of percent of control at 10^−7 M was more than 60% or the value of IC50 was more than 200 nM.)
36 | Cc1cc(N(C)C)nc(N[C@H]2CC[C@@H](NC(=O)c3ccc(C(F)(F)F)cc3)CC2)n1 [compound 2972, N-(cis-4-{[4-(dimethylamino)-6-methylpyrimidin-2-yl]amino}cyclohexyl)-4-(trifluoromethyl)benzamide] | 2 (Class 2: The value of percent of control at 10^−7 M was from 40% to 60% or the value of IC′50 was from 50 nM to 200 nM.)
37 | Cc1cc(C(=O)N[C@H]2CC[C@@H](Nc3ncc(C)c(N(C)C)n3)CC2)ccc1Cl [compound 2935] | 1 (Class 1: The value of percent of control at 10^−7 M was less than 40% or the value of IC50 was less than 50 nM.)
38 | Cc1cnc(N[C@H]2CC[C@@H](C(=O)N[C@H](C)c3ccc([N+](=O)[O-])cc3)CC2)nc1N(C)C [compound 2780, cis-4-{[4-(dimethylamino)-5-methylpyrimidin-2-yl]amino}-N-[(1R)-1-(4-nitrophenyl)ethyl]cyclohexanecarboxamide] | 1 (Class 1: The value of percent of control at 10^−7 M was less than 40% or the value of IC50 was less than 50 nM.)

From patent US20050197350A1, “Novel quinoline, tetrahydroquinazoline, and pyrimidine derivatives and methods of treatment related to the use thereof” (TAISHO PHARMACEUTICAL CO., LTD., priority 2003, published 2005)
